Assay results from PubChem BioAssay (NCI).
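Where inhibition never reached the appropriate level, the endpoint shown equals the highest concentration tested. Otherwise, values were interpolated linearly from a five-concentration, 48-hour dose response in 96-well plates. GI50: concentration for 50% inhibition of growth. TGI: concentration producing complete growth inhibition.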 Where a SMILES comes first, the peptide text is derived from it. The star is where a group is joined. Cbz = O=C(OCc1ccccc1)*

Key:
Test in all cases: growth of human tumour cells (NCI), 48 h; in the data active = GI50 below about 0.43 µM; inactive = the rest
OVCAR-4 ovarian = tested on: OVCAR-4 ovarian
IGROV1 ovarian = tested on: IGROV1 ovarian
NCI/ADR-RES ovarian = tested on: NCI/ADR-RES ovarian
SK-MEL-5 melanoma = tested on: SK-MEL-5 melanoma
DU-145 prostate = tested on: DU-145 prostate
T-47D breast = tested on: T-47D breast
NCI-H460 lung = tested on: NCI-H460 lung
LOX IMVI melanoma = tested on: LOX IMVI melanoma
OVCAR-3 ovarian = tested on: OVCAR-3 ovarian
NCI-H23 lung = tested on: NCI-H23 lung

Brc1ccc(-c2cc(-c3ccc4c(c3)OCO4)c(-c3cccs3)n2Cc2ccccc2)cc1
> 100 µM: TGI (OVCAR-4 ovarian) | TGI (IGROV1 ovarian) | TGI (NCI/ADR-RES ovarian) | TGI (SK-MEL-5 melanoma) | TGI (DU-145 prostate) | TGI (T-47D breast) | TGI (NCI-H460 lung)

COc1cc(C(=O)OCCn2[nH]c(-c3ccc(Cl)cc3)nc2=S)cc(OC)c1OC
> 100 µM: TGI (OVCAR-4 ovarian) | TGI (LOX IMVI melanoma) | TGI (OVCAR-3 ovarian) | TGI (NCI/ADR-RES ovarian) | TGI (SK-MEL-5 melanoma) | TGI (NCI-H23 lung) | TGI (DU-145 prostate) | TGI (NCI-H460 lung)

COc1cc2cc(C(=O)N3CC(CCl)c4c3cc(O)c3ccccc43)[nH]c2c(OC)c1OC (stereo not given)
8.42 µM: TGI (OVCAR-3 ovarian)
< 0.005 µM: TGI (NCI-H460 lung)
> 50 µM: TGI (NCI/ADR-RES ovarian) | TGI (DU-145 prostate) | TGI (T-47D breast)
0.00656 µM: TGI (SK-MEL-5 melanoma)
0.625 µM: TGI (LOX IMVI melanoma)

CCOC(=O)N1N(c2ccccc2)C(=O)C1(c1ccccc1)c1ccccc1
> 100 µM: TGI (OVCAR-4 ovarian) | TGI (IGROV1 ovarian) | TGI (LOX IMVI melanoma) | TGI (OVCAR-3 ovarian) | TGI (NCI/ADR-RES ovarian) | TGI (SK-MEL-5 melanoma) | TGI (NCI-H23 lung) | TGI (DU-145 prostate) | TGI (T-47D breast)

CCCCN1C(=O)CS/C1=N/Nc1nc2c([nH]1)c(=O)n(C)c(=O)n2C
71.4 µM: TGI (OVCAR-4 ovarian)
> 100 µM: TGI (IGROV1 ovarian) | TGI (OVCAR-3 ovarian) | TGI (NCI/ADR-RES ovarian) | TGI (SK-MEL-5 melanoma) | TGI (NCI-H23 lung) | TGI (DU-145 prostate) | TGI (T-47D breast) | TGI (NCI-H460 lung)

CCOC(=O)c1cn2c(ccc3sc4ccccc4c(=O)c32)n1
> 100 µM: TGI (IGROV1 ovarian) | TGI (LOX IMVI melanoma) | TGI (OVCAR-3 ovarian) | TGI (NCI/ADR-RES ovarian) | TGI (SK-MEL-5 melanoma) | TGI (NCI-H23 lung) | TGI (DU-145 prostate) | TGI (NCI-H460 lung)

Cc1nc2ccccc2n1Cc1nnc2n1N=C(c1ccccc1)CS2
> 100 µM: TGI (OVCAR-4 ovarian) | TGI (OVCAR-3 ovarian) | TGI (NCI/ADR-RES ovarian) | TGI (SK-MEL-5 melanoma) | TGI (NCI-H23 lung) | TGI (DU-145 prostate) | TGI (NCI-H460 lung)
43.5 µM: TGI (T-47D breast)
20.1 µM: TGI (IGROV1 ovarian)

Cc1ccc(C)c(COCCOCn2c(=O)[nH]c(=O)c3cc(Br)ccc32)c1
> 100 µM: TGI (OVCAR-4 ovarian) | TGI (IGROV1 ovarian) | TGI (LOX IMVI melanoma) | TGI (OVCAR-3 ovarian) | TGI (NCI/ADR-RES ovarian) | TGI (NCI-H23 lung) | TGI (DU-145 prostate) | TGI (T-47D breast) | TGI (NCI-H460 lung)

Nc1[nH]c(=S)c2c(N)n[nH]c2c1C(=O)Nc1ccc(Cl)cc1
40.1 µM: TGI (LOX IMVI melanoma)
> 100 µM: TGI (OVCAR-4 ovarian) | TGI (IGROV1 ovarian) | TGI (OVCAR-3 ovarian) | TGI (NCI/ADR-RES ovarian) | TGI (SK-MEL-5 melanoma) | TGI (DU-145 prostate) | TGI (T-47D breast) | TGI (NCI-H460 lung)

COC[C@@H](N=CN1CCc2cc(OC)c(OC)cc2C1)C(C)(C)C
> 100 µM: TGI (OVCAR-4 ovarian) | TGI (IGROV1 ovarian) | TGI (OVCAR-3 ovarian) | TGI (SK-MEL-5 melanoma) | TGI (NCI-H23 lung) | TGI (NCI-H460 lung)

COc1ccc(-c2nc3c(nc2-c2ccc(OC)cc2)N(C)S(=O)(=O)N=C3N)cc1
31 µM: TGI (OVCAR-3 ovarian)
26.2 µM: TGI (SK-MEL-5 melanoma)
> 100 µM: TGI (IGROV1 ovarian) | TGI (NCI-H23 lung) | TGI (NCI-H460 lung)
29.9 µM: TGI (LOX IMVI melanoma)
79.2 µM: TGI (OVCAR-4 ovarian)

COc1cccc(C=C2N=C(C)N(n3c(-c4ccccc4)nc4ccccc4c3=O)C2=O)c1
> 100 µM: TGI (IGROV1 ovarian) | TGI (LOX IMVI melanoma) | TGI (SK-MEL-5 melanoma) | TGI (NCI-H23 lung) | TGI (DU-145 prostate) | TGI (T-47D breast) | TGI (NCI-H460 lung)

CCn1c(=O)c2c3cc(OC(C)=O)ccc3oc2c2ccc(OC(C)=O)cc21
> 100 µM: TGI (OVCAR-4 ovarian) | TGI (IGROV1 ovarian) | TGI (OVCAR-3 ovarian) | TGI (NCI/ADR-RES ovarian) | TGI (SK-MEL-5 melanoma) | TGI (NCI-H23 lung) | TGI (DU-145 prostate) | TGI (NCI-H460 lung)
75.4 µM: TGI (T-47D breast)

CCOC(=O)C1=C(C)NC(C)=C(C(=O)OCC)C1c1ccc(C)cc1
48 µM: TGI (NCI-H460 lung)
35.3 µM: TGI (SK-MEL-5 melanoma)
87.7 µM: TGI (OVCAR-3 ovarian)
> 100 µM: TGI (OVCAR-4 ovarian) | TGI (IGROV1 ovarian) | TGI (LOX IMVI melanoma) | TGI (NCI-H23 lung) | TGI (DU-145 prostate) | TGI (T-47D breast)

C[C@]12CCc3sc(-c4cccc(F)c4)nc3C1=CC[C@@H]1[C@@H]2CC[C@]2(C)C(=O)CC[C@@H]12
8.27 µM: TGI (NCI-H460 lung)
4.88 µM: TGI (IGROV1 ovarian)
inactive: GI50 (OVCAR-4 ovarian) 5.51 µM | GI50 (IGROV1 ovarian) 2.09 µM | GI50 (LOX IMVI melanoma) 1.74 µM | GI50 (OVCAR-3 ovarian) 1.92 µM | GI50 (NCI/ADR-RES ovarian) 3.41 µM | GI50 (SK-MEL-5 melanoma) 4.05 µM | GI50 (NCI-H23 lung) 3.54 µM | GI50 (T-47D breast) 2 µM | GI50 (NCI-H460 lung) 2.78 µM
33.5 µM: TGI (NCI-H23 lung)
3.79 µM: TGI (OVCAR-3 ovarian)
> 100 µM: TGI (OVCAR-4 ovarian)
3.36 µM: TGI (LOX IMVI melanoma)
5.24 µM: TGI (T-47D breast)
16.9 µM: TGI (SK-MEL-5 melanoma)
57.5 µM: TGI (NCI/ADR-RES ovarian)

CCc1c(C)c2ccc(OCC(=O)N=Nc3c(O)[nH]c4ccccc34)c(C)c2oc1=O
inactive: GI50 (OVCAR-4 ovarian) 0.788 µM | GI50 (LOX IMVI melanoma) 0.832 µM | GI50 (NCI/ADR-RES ovarian) > 33.3 µM | GI50 (SK-MEL-5 melanoma) 1.06 µM | GI50 (NCI-H23 lung) 1.13 µM
> 33.3 µM: TGI (NCI/ADR-RES ovarian) | TGI (SK-MEL-5 melanoma) | TGI (NCI-H23 lung)
1.86 µM: TGI (OVCAR-4 ovarian)
> 7.31 µM: TGI (LOX IMVI melanoma)

CC(C)(O)CCc1ccc(O)c2c(=O)c3c(O)c4c(cc3oc12)O[C@H]1OC=C[C@@]41O
20.7 µM: TGI (NCI-H460 lung)
0.222 µM: TGI (OVCAR-4 ovarian)
0.64 µM: TGI (NCI-H23 lung)
< 0.01 µM: TGI (OVCAR-3 ovarian)
0.252 µM: TGI (IGROV1 ovarian)
0.298 µM: TGI (NCI/ADR-RES ovarian)
> 100 µM: TGI (LOX IMVI melanoma)

CCOC(=O)CNC(=O)C(C)NC(=O)C(NC(=O)OCc1ccccc1)C(C)C (stereo not drawn) (Cbz-Val-Ala-Gly-OEt; configuration not given here)
> 100 µM: TGI (IGROV1 ovarian) | TGI (OVCAR-3 ovarian) | TGI (NCI/ADR-RES ovarian) | TGI (SK-MEL-5 melanoma) | TGI (NCI-H23 lung) | TGI (DU-145 prostate) | TGI (NCI-H460 lung)

O=C1C2CC=CCC2C(=O)N1n1c(Cc2ccccc2)n[nH]c1=O (stereo not given)
> 100 µM: TGI (OVCAR-4 ovarian) | TGI (IGROV1 ovarian) | TGI (LOX IMVI melanoma) | TGI (OVCAR-3 ovarian) | TGI (NCI/ADR-RES ovarian) | TGI (SK-MEL-5 melanoma) | TGI (NCI-H23 lung) | TGI (T-47D breast) | TGI (NCI-H460 lung)

NC(=O)C1N=NSC1NC(=O)c1ccc([N+](=O)[O-])cc1 (stereo not given)
> 100 µM: TGI (OVCAR-4 ovarian) | TGI (IGROV1 ovarian) | TGI (OVCAR-3 ovarian) | TGI (NCI/ADR-RES ovarian) | TGI (NCI-H23 lung) | TGI (DU-145 prostate) | TGI (T-47D breast) | TGI (NCI-H460 lung)
69.8 µM: TGI (SK-MEL-5 melanoma)

Cc1ccc(S(=O)(=O)N2CCCSCCN(S(=O)(=O)c3ccc(C)cc3)CCCSCC2)cc1
> 100 µM: TGI (OVCAR-4 ovarian) | TGI (IGROV1 ovarian) | TGI (OVCAR-3 ovarian) | TGI (NCI/ADR-RES ovarian) | TGI (SK-MEL-5 melanoma) | TGI (NCI-H23 lung) | TGI (DU-145 prostate) | TGI (T-47D breast) | TGI (NCI-H460 lung)

S=C(c1c[nH]c2ccccc12)N1CCCCC1
> 100 µM: TGI (IGROV1 ovarian) | TGI (LOX IMVI melanoma) | TGI (OVCAR-3 ovarian) | TGI (NCI/ADR-RES ovarian) | TGI (SK-MEL-5 melanoma) | TGI (NCI-H23 lung) | TGI (DU-145 prostate) | TGI (NCI-H460 lung)
